In patent US20260216239A1 (Arizona Board of Regents on Behalf of the University of …, priority 2020, published 2026):
“Also recorded” adds a separate entry of the source.

Tested on: Bothrops moojeni venom
Assay: Thrombelastography in human plasma of venom procoagulant activity after isolated exposure of venom to compounds
Assay type: biochemical
Conditions: venom 2 μg/ml in plasma; for procoagulant activity of venom: venom exposed ≥5 min in PBS to 1 mM CORM-2, 100 μM RuCl3 or both, vs venom alone
Procedure: Thrombelastographic analyses. The volumes of subsequently described plasmatic and other additives summed to a final volume of 360 μl. Samples were composed of 320 μl of plasma; 16.4 μl of PBS, 20 μl of 200 mM CaCl2), and 3.6 μl of PBS or venom mixture, which were pipetted into a disposable cup in a Thrombelastograph® hemostasis system (Model 5000, Haemonetics Inc., Braintree, MA, USA) at 37° C., and then rapidly mixed by moving the cup up against and then away from the plastic pin five times. The following viscoelastic parameters described previously (see, Nielsen V G (2019) J Thromb Thrombolysis 47, 73-79; Gessner G, et al., (2017) Eur J Pharmacol 815, 33-41; Nielsen V G, Wagner M T, Frank N (2020) Int J Mol Sci 21, 2082; Lazić D, Arsenijević A, Puchta R, Bugarčić ŽD, Rilak A (2016) Dalton Trans 45, 4633; Hanif M, et al., (2017) ChemPlusChem 82, 841-847) were measured: time to maximum rate of thrombus generation (TMRTG): this is the time interval (minutes) observed prior to maximum speed of clot growth; maximum rate of thrombus generation (MRTG): this is the maximum velocity of clot growth observed (dynes/cm^2/second); and total thrombus generation (TTG, dynes/cm^2), the final viscoelastic resistance observed after clot formation.
(§1) B. moojeni. This venom was exposed to 0 or 1 mM CORM-2 in the presence of 0 or 100 μM RuCl3 in PBS for at least 5 minutes at room temperature prior to placement into plasma followed immediately with commencement of thrombelastographic analysis. The final concentration of this venom in plasma was 2 μg/ml.
Given the aforementioned, the experimental conditions utilized were: 1) V condition—venom in PBS; 2) Ru(II) condition—venom exposed to CORM-2; 3) Ru(III) condition—venom exposed to RuCl3; 4) Ru(II+III) condition—venom exposed to CORM-2 and RuCl3 simultaneously. After the 5 minute period at room temperature, 3.6 μl of one of these solutions was added to the plasma sample in the plastic thrombelastograph cup.
The volumes of subsequently described plasmatic and other additives summed to a final volume of 360 μl. Samples were composed of 320 μl of plasma; 16.4 μl of PBS, 20 μl of 200 mM CaCl2), and 3.6 μl of PBS or venom mixture, which were pipetted into a disposable cup in a Thrombelastograph® hemostasis system (Model 5000, Haemonetics Inc., Braintree, MA, USA) at 37° C., and then rapidly mixed by moving the cup up against and then away from the plastic pin five times. The following viscoelastic parameters described previously (see, Nielsen, V. G. J Thromb Thrombolysis 2019, 47, 73-79; Gessner, G.; et al., Eur J Pharmacol 2017, 815, 33-41; Nielsen, V. G.; Wagner, M. T.; Frank, N. Int J Mol Sci 2020, 21, 2082; Lazid, D.; et al., Dalton Trans 2016, 45, 4633; Hanif, M.; et al., ChemPlusChem 2017, 82, 841-847) were measured: time to maximum rate of thrombus generation (TMRTG): this is the time interval (minutes) observed prior to maximum speed of clot growth; maximum rate of thrombus generation (MRTG): this is the maximum velocity of clot growth observed (dynes/cm2/second); and total thrombus generation (TTG, dynes/cm2), the final viscoelastic resistance observed after clot formation.
as §1, with “CORM-2 or CORM-3” for “CORM-2”, “analysis. This venom was also exposed to 0 or 1 mM CORM-2 in the presence of 0 or 100 μM carboplatin in another series of experiments.” for “analysis.”
Given the aforementioned, the experimental conditions utilized were: 1) V condition—venom in PBS; 2) Ru(II) condition—venom exposed to CORM-2 or CORM-3; 3) Ru(III) condition—venom exposed to RuCl3; 4) Ru(II+III) condition—venom exposed to CORM-2 or CORM-3 and RuCl3 simultaneously; 5) Pt(II) condition—venom exposed to carboplatin; and 6) Pt+Ru condition—venom exposed to carboplatin and CORM-2.

[1] = 100 μM carboplatin, 1 mM CORM-2 or both
[2] = 1 mM CORM-2, 100 μM RuCl3 or both
[3] = 1 mM CORM-3, 100 μM RuCl3 or both
[4] = venom exposed ≥5 min in PBS to 1 mM CORM-3, 100 μM RuCl3 or both

Compound	maximum rate of thrombus generation (MRTG) [1]	time to maximum rate of thrombus generation (TMRTG) [1]	maximum rate of thrombus generation (MRTG) [2]	time to maximum rate of thrombus generation (TMRTG) [2]	procoagulant activity of venom	maximum rate of thrombus generation (MRTG) [3]	total thrombus generation (TTG) [3]	time to maximum rate of thrombus generation (TMRTG) [4]
[C-]#[O+].[C-]#[O+].[C-]#[O+].[C-]#[O+].[C-]#[O+].[C-]#[O+].[Cl][Ru][Cl].[Cl][Ru][Cl] [CORM-2, tricarbonyldichlororuthenium(II) dimer]	decreased	significantly increased	decrease	prolonged; also recorded: significant increase	significant loss of activity; also recorded: inhibition of procoagulant activity			
[Cl][Ru]([Cl])[Cl] [RuCl3, ruthenium(III) chloride]					no significant effect; also recorded: did not significantly diminish	did not significantly change	significantly increased	significant increase
Tricarbonylchloro(glycinato)ruthenium [CORM-3]						did not significantly change	significantly increased	significant increase
